Values quoted from earlier work in publication PMC9347208, “Pharmacological activation of the hERG K^+ channel for the management of the long QT syndrome: A review” (Journal of Arrhythmia, 2022).
“Also recorded” adds a separate entry of the source. Like-named read-outs stand apart in the source and are kept apart here.

Key:
hERG channel mutants = tested on: hERG channel mutants; parameters: method as in column Ref. of the table row; conditions: mutation named in the value
SQT1 model = tested on: SQT1 model; parameters: method as in column Ref. of the table row; conditions: by creating the substrate for reentry
[1] = tested on: ventricular repolarisation (APD, QT interval)
ICa,L [2] = conditions: recorded from guinea pig cardiomyocytes
[3] = tested on: APD, EADs, and QT prolongation; parameters: method as in PMID 15976038, PMID 29050968, PMID 19892732, PMID 31877041, PMID 23840331; conditions: 3 μM; caused by high‐affinity inhibitor dofetilide; ref [22], [41], [52], [53], [59], [60]
IKs [4] = tested on: IKs; parameters: method as in PMID 15976038, PMID 29050968, PMID 19892732, PMID 31877041, PMID 23840331; conditions: recorded from isolated guinea pig cardiomyocytes; ref [22], [41], [52], [53], [59], [60]
IK1 [5] = tested on: IK1
E637K hERG mutant = tested on: E637K hERG mutant; parameters: method as in PMID 15976038, PMID 29050968, PMID 19892732, PMID 31877041, PMID 23840331; conditions: ref [22], [41], [52], [53], [59], [60]
[6] = tested on: perfused canine atrial preparations; parameters: method as in PMID 15976038, PMID 29050968, PMID 19892732, PMID 31877041, PMID 23840331; conditions: ERP abbreviation and TDR amplification, ref [22], [41], [52], [53], [59], [60]
hERG channel [7] = conditions: for Type: type of hERG activator by main mechanism of action, ref [40]
hERG channel [8] = conditions: astemizole, sertindole, dofetilide, and cisapride, radioligand assays, ref [19] and column References of the table row
[9] = tested on: Dofetilide‐induced arrhythmias; conditions: after pretreatment; ref [19], [21]
Kv1.5 (IKur) = conditions: 50 μM; ref [19], [21]
hERG channel [10] = tested on: hERG channel
ICa,L [11] = tested on: ICa,L; parameters: method as in PMID 29050968, PMID 18042732; conditions: ventricular cardiomyocytes isolated from rabbit hearts; ref [41], [83]
Ito [12] = tested on: Ito; parameters: method as in PMID 29050968, PMID 18042732; conditions: ventricular cardiomyocytes isolated from rabbit hearts; ref [41], [83]
IKr = conditions: native human cardiomyocytes from LQT1 patients; ref [19], [29]
hKir2.1 (IK1) = conditions: ref [19], [29]
hCav1.2 (ICa,L) = tested on: hCav1.2 (ICa,L); parameters: method as in column Ref. of the table row
hKv4.3 (Ito) = conditions: ref [19], [29]
Ito [13] = tested on: Ito; parameters: method as in PMID 29050968, PMID 20097192, PMID 12931255; conditions: ref [41], [55], [81]
IK1 [14] = tested on: IK1; parameters: method as in PMID 29050968, PMID 20097192, PMID 12931255; conditions: ref [41], [55], [81]
ICa,L [15] = tested on: ICa,L; parameters: method as in PMID 29050968, PMID 20097192, PMID 12931255; conditions: ref [41], [55], [81]
IKAch = tested on: IKAch; parameters: method as in PMID 29050968, PMID 20097192, PMID 12931255; conditions: ventricular guinea pig myocytes; ref [41], [55], [81]
[16] = tested on: Ca^2+‐activated K^+ (BK channel); conditions: ref [41], [55], [81]
IKATP channels = tested on: IKATP channels; parameters: method as in PMID 29050968, PMID 20097192, PMID 12931255; conditions: ref [41], [55], [81]
IKs [17] = tested on: IKs; parameters: method as in PMID 29050968, PMID 20097192, PMID 12931255; conditions: ref [41], [55], [81]
[18] = tested on: voltage‐dependent Na^+ channels; parameters: method as in PMID 29050968, PMID 20097192, PMID 12931255; conditions: ref [41], [55], [81]
[19] = tested on: neuronal Kv12.1 ether‐à‐ go‐go‐gene‐like (elk3) channel; parameters: method as in PMID 24041920, PMID 25809254, PMID 18452879, PMID 29050968, PMID 25191697; conditions: ref [16], [27], [32], [41], [48], [58], [61], [70], [84]
guinea pig hearts = conditions: Langendorff‐perfused Guinea pig hearts, high concentrations; ref [16], [27], [32], [41], [48], [58], [61], [70], [84]
hERG1a and hERG1b = tested on: hERG1a and hERG1b; parameters: method as in column Ref. of the table row
[20] = recorded from isolated guinea pig cardiomyocytes, ref [22], [41], [52], [53], [59], [60]
[21] = suggested, as no change to AP amplitude and diastolic potential of guinea pig cardiomyocytes

O=C(O)c1ccccc1Nc1ccc(CCc2ccc(Cl)c(Cl)c2)cc1 [PD‐118057]
Molecular determinants of activity: effect of hERG mutations on agonist activity (hERG channel mutants): Mutation to F619 and L646 suppresses agonist activity; also recorded: Mutation to C643 and M645 enhances drug activity
Reported associated pro‐arrhythmic risk: SQT1 manifestations (SQT1 model): Recapitulates the electrophysiological and arrhythmic manifestations of SQT1
Effect on PRRP and QT interval ([1]; ref [21], [60], [61]): increase the PRRP and shorten the QT interval but potentially to the point of triggering arrhythmia
Channel selectivity: effect on cardiac ICa,L (ICa,L [2]): No effect on INa, ICa‐L, IK1, and IKs recorded from isolated guinea pig cardiomyocytes.
Reported benefit for LQTS: diLQTS [3]: prevents APD, EADs, and QT prolongation
Channel selectivity: effect on INa (INa; [20]): No effect on INa, ICa‐L, IK1, and IKs recorded from isolated guinea pig cardiomyocytes.
Channel selectivity: effect on IKs (IKs [4]): No effect on INa, ICa‐L, IK1, and IKs recorded from isolated guinea pig cardiomyocytes.
Channel selectivity: effect on IK1 (IK1 [5]; [20]): No effect on INa, ICa‐L, IK1, and IKs recorded from isolated guinea pig cardiomyocytes.
Reported benefit for LQTS: cLQTS, rescue of E637K hERG mutant (E637K hERG mutant): Failed to rescue
Reported associated pro‐arrhythmic risk: arrhythmia provocations [6]: Increases arrhythmia provocations
Type (hERG channel [7]): 4

O=C(COc1ccc2ccccc2c1Br)Nc1cccnc1 [VU0405601]
Channel selectivity: effect on recombinant Nav1.5 (INa) (hNav1.5 (INa); 50 μM, ref [19], [21]): No or small effect of 50 μM on recombinant cardiac Kv1.5 (IKur), Nav1.5 (INa), and KCNQ1 + KCNE1 (IKs) channels.
Channel selectivity: effect on recombinant KCNQ1 + KCNE1 (IKs) (hKCNQ1‐KCNE1 (IKs); 50 μM, ref [19], [21]): No or small effect of 50 μM on recombinant cardiac Kv1.5 (IKur), Nav1.5 (INa), and KCNQ1 + KCNE1 (IKs) channels.
Allosteric effect on the binding of hERG blockers (hERG channel [8]): negative allosteric modulators; also recorded: weaken interactions
Reported benefit for LQT: diLQTS, dofetilide‐induced arrhythmias [9]: reduced
Channel selectivity: effect on recombinant cardiac Kv1.5 (IKur) (Kv1.5 (IKur)): No or small effect of 50 μM on recombinant cardiac Kv1.5 (IKur), Nav1.5 (INa), and KCNQ1 + KCNE1 (IKs) channels.

O=C(O)c1cccnc1Nc1ccc2c(c1)CN(c1ccc(Cl)c(Cl)c1)C2 [PD‐307243]
Channel selectivity: effect on recombinant hNav1.5 (INa) (hNav1.5 (INa)): No effect
Reported benefit for LQT: activator effect in presence of BeKm‐1 (hERG channel [10]; ref [41], [83]): potentiated
Reported benefit for LQT: diLQTS, interaction with dofetilide (hERG channel [10]; ref [41], [83]): Dofetilide prevents the activator effect of PD and unmasks its current suppressing effect
Channel selectivity: effect on recombinant hKCNQ1‐KCNE1 (IKs) (hKCNQ1‐KCNE1 (IKs)): No effect
Channel selectivity: effect on ICa,L (ICa,L [11]): Activates
Channel selectivity: effect on Ito (Ito [12]): no effect

O=C(COc1ccc(C(=O)c2ccccc2)cc1)Nc1cccnc1 [ML‐T531]
Channel selectivity: effect on recombinant hNav1.5 (INa) (hNav1.5 (INa)): No effect
Reported benefit for LQT: cLQTS, IKr (IKr): IKr increase
Channel selectivity: effect on hKCNQ1‐KCNE1 channels (IKs) (hKCNQ1‐KCNE1 (IKs); 10 μM, ref [19], [29]): minor suppressive effect
Channel selectivity: effect on recombinant hKir2.1 (IK1) (hKir2.1 (IK1)): No effect
Allosteric effect on the binding of hERG blockers (hERG channel [8]): Negative effect on the binding
Allosteric effect on the binding of hERG blockers (hERG channel [8]; listed as MLT‐531): negative allosteric modulators
Channel selectivity: effect on recombinant hCav1.2 (ICa,L) (hCav1.2 (ICa,L)): No effect
Channel selectivity: effect on recombinant hKv4.3 (Ito) (hKv4.3 (Ito)): No effect

Cc1oc2ccccc2c1Cc1cc(I)c(OCC(=O)O)c(I)c1 [KB130015]
Channel selectivity: effect on Ito (Ito [13]): No effect
Channel selectivity: effect on IK1 (IK1 [14]): No effect
Reported benefit for LQTS: diLQTS, hERG block by amiodarone and E‐4031 (hERG channel [10]; ref [41], [55], [81]): diLQTS: Functionally competes with hERG block by amiodarone and E‐4031.
Channel selectivity: effect on ICa,L (ICa,L [15]): Inhibits
Channel selectivity: effect on IKAch (IKAch): inhibits
Channel selectivity: effect on large‐conductance calcium‐activated potassium (BK) channels [16]: Activates
Channel selectivity: effect on IKATP channels (IKATP channels): Inhibits
Channel selectivity: effect on IKs (IKs [17]): Activates
Channel selectivity: effect on voltage‐dependent Na^+ channels [18]: Slows the inactivation
Type (hERG channel [7]): 3

O=C(Nc1cc(C(F)(F)F)ccc1O)Nc1cc(C(F)(F)F)ccc1O [NS1643, 1,3‐bis‐(2‐hydroxy‐5‐trifluoromethyl‐phenyl)‐urea]
Effect against Nav1.5 channels (hNav1.5 (INa); ref [32]): inhibitory effects
Efficacy against triggered activity ([1]; low concentration, in vitro and ex vivo experimental models, ref [32]): effective against triggered activity
TDR and instability of the QT interval ([1]; only in the presence of an I Ks inhibitor, ref [16]): markedly amplify
Reported benefit for LQT: diLQTS, effects of hERG inhibition by drug inhibitors (hERG channel [10]; 10 μM, inhibitors e.g. E‐4031, dofetilide, moxifloxacin, ref [16], [27], [32], [41], [48], [58], [61], [70], [84]): attenuate electrophysiological effects associated with hERG inhibition by various drug inhibitors; also recorded: did not reverse the inhibition to the control levels
Channel selectivity: effect on cardiac INa (INa; [21]): Suggested absence
Channel selectivity: effect on neuronal Kv12.1 (elk3) channel [19]: Inhibitor
Reported associated pro‐arrhythmic risk: ventricular tachycardia and fibrillation (guinea pig hearts): Induces ventricular tachycardia and ventricular fibrillation
Channel selectivity: effect on cardiac IK1 (IK1 [5]; [21]): Suggested absence
Channel selectivity: sensitivity of hERG1a versus hERG1b (hERG1a and hERG1b): Differential sensitivity
Potency in reducing hERG channel inactivation (hERG channel [7]; ref [16], [31]): modest potency compared with ICA‐105574
Type (hERG channel [7]): 1, 2, and possibly 3
